A melting point compilation (Tetko et al.; mined from patent text by program, amines drawn as free bases though some values may be those of a salt)

Work on `O=C(c1ccccc1C(c1ccc(O)cc1)c1ccc(O)cc1)N1CCCCC1` yielded a melting point of 242 to 244 °C.
Work on `O=C(O)CCCc1cccc(CNC(=O)C2Cc3ccccc3N2S(=O)(=O)c2ccc(-c3cccc(C(F)(F)F)c3)cc2)c1` (stereo not drawn) yielded a melting point of 76 °C.
For `FC(F)=C(F)Oc1ccc(C2(c3ccc(OC(F)=C(F)F)cc3)c3ccccc3-c3ccccc32)cc1`, the melting point was 115 to 116 °C.
Molecule `O=C(Nc1ccc(-c2ncc(-c3ccc(NC(=O)C4CCCCCC4)cc3)[nH]2)cc1)c1c(F)c(F)c(F)c(F)c1F` has a melting point of 300 to 302 °C.
With `CSCCNC(N)=Nc1ccccc1N1CCOCC1` the melting point was 115 to 116 °C.
`Cc1ccc(C(N)=S)cc1C` showed a melting point of 120 to 125 °C.
Work on `CC1(C)NC2(CCCCC2)NC1(C)C` yielded a melting point of 31 to 32 °C.
Molecule `O=C1C=CC2=CN=C(Cc3ccccc3)N3CCC(=C23)N1` has a melting point of 226 to 228 °C.
With `CC(=O)N(C(=O)OC(C)(C)C)c1ccc(-c2nc3n(Cc4c(F)cccc4F)cc(-c4ccccc4)c(=O)n3c2C)cc1` the melting point was 220 to 222 °C.
In the case of `CCC(=O)OCC1OC(n2c(Cl)c(C=O)c3cc(Cl)c(Cl)cc32)C(O)C1O` (stereo not drawn), the melting point is reported as 139 to 140 °C.
In the case of `CC(=NO)C(C)(C)NCC(O)CNC(C)(C)C(CCn1ccnc1[N+](=O)[O-])=NO` (stereo not drawn), the melting point is reported as 62 to 64 °C.
For `COC(=O)CC1(C)C(=O)N(C)c2ccc(OC)cc21` (stereo not drawn), the melting point was 83 to 84 °C.
With `COCC(C#N)=Cc1cc(OC)c2c(c1)OCO2` the melting point was 115 °C.
`N[C@@H]1CCCN([C@@H]2Cc3ccccc3[C@H]2Oc2cc3c(cc2Cl)NC(=O)CC3)C1` gave a melting point of 184 °C.
Molecule `CCCOc1ccc(S(=O)(=O)N2CCN(CC)CC2)cc1-c1nc2cc(Cl)c([N+](=O)[O-])cc2c(=O)[nH]1` has a melting point of 239 to 241 °C.
`Cc1cc(C)cc(Sc2c(C(C)C)c(=O)[nH]c(=O)n2CC#Cc2ccccc2)c1` gave a melting point of 113 to 115 °C.
Molecule `CCOC(=O)COCCCC(=CC(N)C(=O)O)CP(=O)(O)O` (stereo not drawn) has a melting point of 215 to 218 °C.
Work on `NS(=O)(=O)c1ccccc1-c1cnco1` yielded a melting point of 157 to 163 °C.
With `CC(C)C(=C(c1ccccc1)c1ccccc1)P(C1CCCCC1)C1CCCCC1` the melting point was 162 to 163 °C.
`Cc1c(S(=O)(=O)Nc2ccc(CO)cc2S(C)(=O)=O)sc2ccc(F)cc12` showed a melting point of 120 to 121 °C.
Work on `CC(C)(O/N=C(\C(=O)Sc1nc2ccccc2s1)c1csc(N)n1)C(=O)OC(c1ccccc1)c1ccccc1` yielded a melting point of 110 °C.
Molecule `COC(=O)c1nn2c(C)csc2c1SSc1c(C(=O)OC)nn2c(C)csc12` has a melting point of 193 to 194 °C.
Work on `O=C(O)CNc1cc(C(=O)O)nc2ccccc12` yielded a melting point of 260 to 261 °C.
For `CC(C)(C)COc1ccc(NC(=O)c2cnn(-c3ccc(F)cc3)c2Cl)cc1C#N`, the melting point was 149 to 150 °C.
Work on `CCC1CC(C)(C)Oc2c1cc(C(C)=O)c(O)c2C` (stereo not drawn) yielded a melting point of 92 to 93 °C.
In the case of `CCCn1c(COCC)nc2c(N)nc3ccc(OC4CCN(C(=O)OC(C)(C)C)CC4)cc3c21`, the melting point is reported as 180 to 181 °C.
For `COc1ccc(COc2cccc(N)c2N)cc1`, the melting point was 127 °C.
Molecule `CSCCC1=NS(=O)(=O)NC(N)=N1` has a melting point of 243 to 246 °C.
In the case of `O=C(O)COc1cc2c(c(Cl)c1Cl)C(=O)c1ccccc1-2`, the melting point is reported as 305 to 306 °C.
In the case of `COC(=O)C1(O)CC(O[Si](C)(C)C(C)(C)C)C(O)C(O[Si](C)(C)C(C)(C)C)C1` (stereo not drawn), the melting point is reported as 82 to 82.5 °C.
For `CN(C)CCCn1c(=O)c(C#N)c(N2CCN(C(=O)c3cccs3)CC2)c2cccnc21`, the melting point was 176 °C.
Molecule `CSc1nnc2n1C=C(C)c1ccccc1C2` has a melting point of 129 to 130 °C.
`Cc1[nH]c(=S)n(Nc2ccc(F)cc2)c1-c1ccccc1` gave a melting point of 228 °C.
Work on `CC(C)Oc1c(C(=O)Nc2nnn[nH]2)sc2c1CN(C(=O)OC(C)(C)C)CC2` yielded a melting point of 189 to 191 °C.
For `CC1Oc2ccc(CN3CCN(c4nc(-c5ccccc5)ns4)CC3)cc2NC1=O` (stereo not drawn), the melting point was 192 to 221 °C.
Molecule `CC1(C#N)CN(C(c2ccccc2)c2ccccc2)C1` has a melting point of 78 to 80 °C.
Work on `O=C(NC(NC(=S)Nc1ccccc1)C(F)(F)F)c1ccc(Cl)cc1` (stereo not drawn) yielded a melting point of 198 to 201 °C.
Work on `COc1ccc(CNc2cc(Cn3c(C(=O)c4cc(C)cc(C)c4)c(C(C)C)c(=O)[nH]c3=O)cc(F)n2)cc1` yielded a melting point of 120 to 122 °C.
Molecule `COc1ccc(C)cc1NC(=O)Nc1ccc(N2CCN(C(=O)Nc3ccc(CCO)cc3C)CC2)cc1` has a melting point of 119 to 121 °C.
Work on `COc1ccc(Nc2ccc(Nc3ncnc4cc(-c5ccccc5)sc34)cc2)cc1OC` yielded a melting point of 160 to 161 °C.
For `CC(C)(CCc1ccc(NC=NO)cc1)CN1CCCC1`, the melting point was 120 to 122 °C.
In the case of `CSCc1cn(C)c2ccc(C)cc2c1=O`, the melting point is reported as 142 to 143 °C.
Work on `COc1ccc(-c2[nH]nc3c2C(=O)c2c(NC(=O)CN4CCC(CN)CC4)cccc2-3)cc1` yielded a melting point of over 300 °C.
In the case of `CN(C)CCNc1ccc(NCCN(C)C)c2c1C(=O)c1c(O)ccc(O)c1C2=O`, the melting point is reported as 236 to 238 °C.
For `CC1=CCC(O)(C(C)(C)Sc2ccccc2)CC1` (stereo not drawn), the melting point was 73 to 74 °C.
Work on `C(=Cc1ccc2cc(C=Cc3ccccc3)ccc2c1)c1ccccc1` yielded a melting point of 291 °C.
`CC(=O)Nc1ccc(C(C)(C)C)cc1OC(C)=O` showed a melting point of 109 to 110 °C.
For `CN(C)C(=N[N+](=O)[O-])N(Cc1cnc(Cl)s1)C(=S)Oc1ccccc1`, the melting point was 161 to 162 °C.
`COC(=O)[C@H](O)[C@@H](NC(=O)OC(C)(C)C)c1ccc(C#N)cc1` showed a melting point of 250 °C.
With `COC(=O)C(c1ccc(Cl)cc1)(c1ccc(Cl)cc1)c1ncc[nH]1` the melting point was 132 °C.
With `CC(=O)OC1CSC(Oc2cccnc2C(=O)N(C)C)C(OC(C)=O)C1OC(C)=O` (stereo not drawn) the melting point was 85 to 89 °C.
For `CC(C)(Nc1ccccc1[N+](=O)[O-])C(=O)O`, the melting point was 132 to 133 °C.
`CN(CC(=O)Nc1ccccc1N)C(=O)OC(C)(C)C` gave a melting point of 134 to 136 °C.
Work on `COCc1nsc2ccc(-n3c(=O)cc(C(F)(F)F)n(C)c3=O)cc12` yielded a melting point of 161 to 163 °C.
For `CC(C)OCCCNC(=O)CN1C(=O)C2(COc3cc4c(cc32)CCO4)c2ccccc21` (stereo not drawn), the melting point was 149 to 151 °C.
For `CCOC(=O)C(=O)Cc1c[nH]c2ccc(OCc3ccccc3)cc12`, the melting point was 169 to 170 °C.
For `CCN1C[C@@H](C(=O)OC(C)(C)C)N(C(=O)[C@H](C)CSC(=O)c2ccccc2)C1=O`, the melting point was 92 to 93 °C.
Molecule `N#Cc1cc(-c2cc(C(F)F)c3c(-c4cccnc4)nn(C4CCCCO4)c3n2)ccc1N` (stereo not drawn) has a melting point of 140 °C.
`CCCNc1nc(OCC)nc2cscc12` gave a melting point of 140 to 142 °C.
`O=C(Cc1csc(-c2c(O)cccc2O)n1)NC1C(=O)N2C(C(=O)OC(c3ccccc3)c3ccccc3)=CCSC12` (stereo not drawn) gave a melting point of 164 to 166 °C.
Work on `CCOC(=O)CCNc1ncccc1NC(=O)c1ccc(Cl)cc1` yielded a melting point of 124 to 125 °C.
With `CCN(CC)C(=O)CCc1cc(-c2ccc(Cl)cc2)n(-c2ccc(OC)cc2)n1` the melting point was 111 to 112 °C.
`COc1cccc(CCc2c(CCNC(=O)CCCCC(=O)NCCc3ccc(NS(C)(=O)=O)cc3)ccc(OC)c2OC)c1` gave a melting point of 157 to 159 °C.
`CC1(C)CC(=O)C(S(=O)Cc2ccc(Cl)cc2)=C(O)C1` (stereo not drawn) showed a melting point of 144 to 145 °C.
`Cc1cnc2c(Cl)cnn2c1-c1cccc(C(F)(F)F)c1` gave a melting point of 195 to 197 °C.
For `Cc1cccc(-c2[nH]c(C(C)C)nc2-c2cccc(-c3ccc4c(c3)CCCS4)c2)n1`, the melting point was 115 to 117 °C.
`Cc1c(CC(=O)O)cc2ccc(F)cc2c1Cc1ccc(S(=O)(=O)C(F)(F)F)cc1` showed a melting point of 200 to 201 °C.
Molecule `O=C(F)N(SN1CCOCC1)c1ccccc1` has a melting point of 71 to 72 °C.
In the case of `N#CCC1CCN(C(c2ccccc2)c2ccccc2)CC1`, the melting point is reported as 103 to 104 °C.
Work on `Cc1nc2c(s1)CC(CO)CC2` (stereo not drawn) yielded a melting point of 101 to 102 °C.
With `CCCCc1cc2cc(NC(C)=O)ccc2o1` the melting point was 71 to 73 °C.
In the case of `CCc1[nH]n(C2CCCC2)c2nc(Oc3ccccc3)nc(=O)c1-2`, the melting point is reported as 175 to 177 °C.
`NC(=O)NN=Cc1ccc(OCCc2coc(-c3ccccc3)n2)cc1` gave a melting point of 221 to 226 °C.
With `NC(=O)c1nc(-c2cccc(O)c2)nc2c1[nH]c(=O)n2-c1ccccc1C1CCCCC1` the melting point was over 270 °C.
`COc1ccc2ncccc2c1N` gave a melting point of 152 to 154 °C.
With `CN(C)C1CC=C(c2c[nH]c3ccc(N)cc23)CC1` (stereo not drawn) the melting point was 63 to 65 °C.
`CCc1nc2c(N)nc3cccnc3c2n1CC1(O)CCOC1` (stereo not drawn) showed a melting point of 234 to 236 °C.
Molecule `O=C1c2c(Br)cccc2-n2cnc(-c3noc(CCl)n3)c2[C@@H]2CCCN12` has a melting point of 242 to 244 °C.
`N#CC=Cc1ccc(-c2ccccc2)cc1` showed a melting point of 43.7 °C.
With `Cc1ncc(CC(=O)O)s1` the melting point was 144 °C.
Molecule `CS(=O)(=O)Nc1cccc(Nc2nc(N3CCCC3)c3nc[nH]c3n2)c1` has a melting point of 164 to 168 °C.
Work on `Clc1ccc(CC[C@H]2CN(Cc3ccccc3)CCN2Cc2ccccc2)cc1` yielded a melting point of 87 to 90 °C.
For `O=C(Nc1ccc(C(=O)N2Cc3ccccc3Cc3ccccc32)cc1)c1cc(Cl)ccc1Cl`, the melting point was 203 to 231 °C.
For `COc1ccc(NS(=O)(=O)c2ccccc2Br)cc1N(C)C1CCN(C)CC1`, the melting point was 119 to 121 °C.
`CC(O)CN(C)c1nnc2c3ccc(Cl)cc3c(-c3ccccc3)nn12` (stereo not drawn) showed a melting point of 236 to 238 °C.
With `CNC(=O)c1cccc(NC(=O)COc2ccccc2Cl)c1` the melting point was 172 to 173 °C.
`CCCCNC(=O)Nc1ccc(SCC)cc1C(=O)NCC1CCN(C(c2ccccc2)c2ccccc2)CC1` showed a melting point of 159 to 160 °C.
For `O=C(O)c1ccccc1Sc1cccc2c1C(=O)NC2=O`, the melting point was 289 to 290 °C.
`CCOC(Nc1ccccc1)(OCC)c1cc(C(=O)c2ccc(Cl)cc2)nc(C)c1Cl` gave a melting point of 156 to 157 °C.
For `Cc1nc2c(N)nc3ccc(OCc4ccccc4)cc3c2n1CCCCNC(=O)Nc1ccccc1`, the melting point was 202 to 204 °C.
For `C=COc1ccccc1S(=O)(=O)NC(=O)c1ccc(Cc2cn(C)c3ccc(NC(=O)OC4CCCC4)cc23)c(OC)c1`, the melting point was 185 to 188 °C.
With `O=Cc1cc(C(=O)CCl)c[nH]1` the melting point was 178 to 179 °C.
`C=CCC1=C(C)C(O)CC1=O` (stereo not drawn) showed a melting point of 130 to 132 °C.
`O=C(O)C(O)=CC(=O)c1ccc(Cl)c(Cl)c1` gave a melting point of 180 to 181 °C.
`CC(=O)OC1N=C(c2ccccc2)c2cc(Cl)ccc2-n2c1cnc2C` (stereo not drawn) showed a melting point of 200 to 201 °C.
Work on `COC(=O)NC(=O)c1c(Br)ccc2c(C(F)(F)F)c(OC)ccc12` yielded a melting point of 180 to 182 °C.
Work on `CCN(CC)c1ccc(C2(N(c3ccccc3)c3ccc(NC(C)=O)cc3)OC(=O)c3ccccc32)c(C)c1` (stereo not drawn) yielded a melting point of 169 to 171 °C.
Work on `CC1CC1C(=O)Nc1ccc(-n2nc(C(F)(F)F)cc2C(F)(F)F)cc1` (stereo not drawn) yielded a melting point of 172 to 173 °C.
